Test results: US10785979B2, “Substituted ketoxime benzoylamides” (Bayer CropScience Aktiengesellschaft, priority 2015, dated 2020)

Key:
different harmful plants [1] = experiment: Post-emergence comparative tests versus known compounds from WO 2013/064459 A1 (D1); assay type: in vivo; settings: visual assessment after about 3 weeks; for Herbicidal efficacy against MATIN: Matricaria inodora; for Herbicidal efficacy against VIOTR: Viola tricolor; for Herbicidal efficacy against ALOMY: Alopecurus myosuroides
Protocol: Seeds of monocotyledonous and dicotyledonous weed and crop plants are laid out in sandy loam soil in wood-fiber pots, covered with soil and cultivated in a greenhouse under good growth conditions. 2 to 3 weeks after sowing, the test plants are treated at the one-leaf stage. The compounds of the invention, formulated in the form of wettable powders (WP) or as emulsion concentrates (EC), are then sprayed onto the green parts of the plants in the form of an aqueous suspension or emulsion at a water application rate equating to 600 to 800 I/ha, with addition of 0.2% wetting agent. After the test plants have been left to stand in the greenhouse under optimal growth conditions for about 3 weeks, the action of the preparations is assessed visually in comparison to untreated controls (herbicidal action in percent (%): 100% activity=the plants have died, 0% activity=like control plants). In this case, for example, compound Nos. 1-15, 1-71, 1-74, 2-15, 2-19, 2-67, 2-71, 2-74, 2-136, 3-15, 3-19, 4-19, 4-136, 5-15, 7-15, 7-19, 7-74, 8-1, 8-25, 8-26, 9-5, 9-25, 10-5 and 10-5, at an application rate of 80 g/ha, each show at least 80% efficacy against Abutilon theophrasti and Veronica persica.
(§1) 3. Comparative Experiments
(§2) In addition, comparative tests were conducted under the conditions specified above on different harmful plants between inventive compounds and the most structurally similar known compounds from WO 2013/064459 A1 (D1). The results listed in the tables which follow show the superiority of these compounds of the invention.
(§3) The abbreviations used here mean:
Post-Emergence Comparative Tests

different harmful plants [2] = experiment: Pre-emergence comparative tests versus known compounds from WO 2013/064459 A1 (D1); assay type: in vivo; settings: visual scoring after 3 weeks; for Herbicidal efficacy against AVEFA: Avena fatua; for Herbicidal efficacy against CYPES: Cyperus esculentus; for Herbicidal efficacy against VIOTR: Viola tricolor; for Herbicidal efficacy against STEME: Stellaria media; for Herbicidal efficacy against ECHCG: Echinochloa crus galli; for Herbicidal efficacy against POLCO: Polygonum convolvulus
Excerpt: Seeds of monocotyledonous and dicotyledonous weed plants and crop plants are laid out in wood-fiber pots in sandy loam and covered with soil. The compounds of the invention, formulated in the form of wettable powders (WP) or as emulsion concentrates (EC), are then applied to the surface of the covering soil in the form of an aqueous suspension or emulsion at a water application rate equating to 600 to 800 I/ha, with addition of 0.2% wetting agent. After the treatment, the pots are placed in a greenhouse and kept under good growth conditions for the trial plants. The damage to the test plants is scored visually after a test period of 3 weeks by comparison with untreated controls (herbicidal activity in percent (%): 100% activity=the plants have died, 0% activity=like control plants). In this case, for example, compound Nos. 1-15, 1-71, 1-74, 2-15, 2-19, 2-67, 2-71, 2-74, 2-136, 3-15, 3-19, 4-74, 5-15, 5-67, 5-71, 5-74, 6-15, 6-19, 6-67, 6-71, 6-74, 7-15, 7-19, 7-71, 7-74, 8-1, 8-25, 9-5, 9-25, 10-5 and 12-25, at an application rate of 320 g/ha, each show at least 80% efficacy against Abutilon theophrasti and Veronica persica.
as §1, §2, §3
Pre-Emergence Comparative Tests

Row | Compound | Herbicidal efficacy against AVEFA (different harmful plants [2]; 320 g a.i./ha) [%] | Herbicidal efficacy against VIOTR (different harmful plants [2]; 320 g a.i./ha) [%] | Herbicidal efficacy against MATIN (different harmful plants [1]; 80 g a.i./ha) [%] | Herbicidal efficacy against VIOTR (different harmful plants [1]; 80 g a.i./ha) [%] | further results
1 | CCON=C(C)c1c(Cl)ccc(C(=O)Nc2nnnn2C)c1Cl (single isomer, unassigned) [1-5] | 90 | 100 | – | – | Herbicidal efficacy against MATIN (different harmful plants [1]; 20 g a.i./ha): 90%; Herbicidal efficacy against VIOTR (different harmful plants [1]; 20 g a.i./ha): 90%; Herbicidal efficacy against CYPES (different harmful plants [2]; 320 g a.i./ha): 90%
2 | CC(=NOCC1CC1)c1c(Cl)ccc(C(=O)Nc2nnnn2C)c1Cl (single isomer, unassigned) [1-8] | 90 | 100 | 100 | – | Herbicidal efficacy against ALOMY (different harmful plants [1]; 80 g a.i./ha): 70%; Herbicidal efficacy against STEME (different harmful plants [2]; 320 g a.i./ha): 100%
3 | CCn1nnnc1NC(=O)c1ccc(Cl)c(C(C)=NOC)c1Cl (single isomer, unassigned) [2-1] | 100 | 100 | – | 100 | Herbicidal efficacy against ALOMY (different harmful plants [1]; 80 g a.i./ha): 60%; Herbicidal efficacy against CYPES (different harmful plants [2]; 320 g a.i./ha): 100%
4 | CCCn1nnnc1NC(=O)c1ccc(Cl)c(C(C)=NOC)c1Cl (single isomer, unassigned) [3-1] | 80 | 100 | – | – | Herbicidal efficacy against MATIN (different harmful plants [1]; 20 g a.i./ha): 80%; Herbicidal efficacy against VIOTR (different harmful plants [1]; 20 g a.i./ha): 100%; Herbicidal efficacy against CYPES (different harmful plants [2]; 320 g a.i./ha): 100%
5 | CCCn1nnnc1NC(=O)c1ccc(Cl)c(C(C)=NOCC)c1Cl (single isomer, unassigned) [3-5] | 70 | 100 | 90 | 100 | Herbicidal efficacy against STEME (different harmful plants [2]; 320 g a.i./ha): 100%
6 | CCCn1nnnc1NC(=O)c1ccc(Cl)c(C(C)=NOCC2CC2)c1Cl (single isomer, unassigned) [3-8] | – | – | 70 | 80 | –
7 | CCCn1nnnc1NC(=O)c1ccc(S(C)(=O)=O)c(C(C)=NOC)c1Cl (single isomer, unassigned) [3-15] | – | – | – | – | Herbicidal efficacy against MATIN (different harmful plants [1]; 20 g a.i./ha): 90%; Herbicidal efficacy against VIOTR (different harmful plants [1]; 20 g a.i./ha): 90%
8 | CCCn1nnnc1NC(=O)c1ccc(S(C)(=O)=O)c(C(C)=NOCC)c1Cl (single isomer, unassigned) [3-19] | – | – | – | 100 | Herbicidal efficacy against ALOMY (different harmful plants [1]; 80 g a.i./ha): 50%; Herbicidal efficacy against CYPES (different harmful plants [2]; 80 g a.i./ha): 80%; Herbicidal efficacy against ECHCG (different harmful plants [2]; 80 g a.i./ha): 90%; Herbicidal efficacy against VIOTR (different harmful plants [2]; 80 g a.i./ha): 100%
9 | CCON=C(C)c1c(Cl)ccc(C(=O)Nc2ncnn2C)c1Cl (single isomer, unassigned) [4-5] | – | 100 | – | 90 | Herbicidal efficacy against ALOMY (different harmful plants [1]; 80 g a.i./ha): 30%; Herbicidal efficacy against ECHCG (different harmful plants [2]; 320 g a.i./ha): 90%; Herbicidal efficacy against STEME (different harmful plants [2]; 320 g a.i./ha): 80%
10 | CCON=C(C)c1c(S(C)(=O)=O)ccc(C(=O)Nc2ncnn2C)c1Cl (single isomer, unassigned) [4-19] | – | – | – | – | Herbicidal efficacy against ALOMY (different harmful plants [1]; 20 g a.i./ha): 80%; Herbicidal efficacy against VIOTR (different harmful plants [1]; 20 g a.i./ha): 100%
11 | CON=C(C)c1c(Cl)ccc(C(=O)Nc2nonc2C)c1Cl (single isomer, unassigned) [6-1] | – | – | – | – | Herbicidal efficacy against ECHCG (different harmful plants [2]; 320 g a.i./ha): 60%; Herbicidal efficacy against POLCO (different harmful plants [2]; 320 g a.i./ha): 40%; Herbicidal efficacy against STEME (different harmful plants [2]; 320 g a.i./ha): 60%
12 | CON=C(C)c1c(S(C)(=O)=O)ccc(C(=O)Nc2nonc2C)c1Cl (single isomer, unassigned) [6-15] | – | – | 80 | 100 | –
13 | CCON=C(C)c1c(S(C)(=O)=O)ccc(C(=O)Nc2nonc2C)c1Cl (single isomer, unassigned) [6-19] | 30 | 100 | 70 | 100 | Herbicidal efficacy against CYPES (different harmful plants [2]; 320 g a.i./ha): 80%
14 | CCCn1nnnc1NC(=O)c1ccc(S(C)(=O)=O)c(C(C)=NOC)c1Cl (single isomer, unassigned) [10-5] | – | – | 100 | – | Herbicidal efficacy against ALOMY (different harmful plants [1]; 80 g a.i./ha): 60%
15 | CCCn1nnnc1NC(=O)c1ccc(S(C)(=O)=O)c(C(C)=NOCC)c1Cl (single isomer, unassigned) [10-6] | 40 | 100 | – | – | Herbicidal efficacy against MATIN (different harmful plants [1]; 20 g a.i./ha): 90%; Herbicidal efficacy against VIOTR (different harmful plants [1]; 20 g a.i./ha): 100%; Herbicidal efficacy against POLCO (different harmful plants [2]; 320 g a.i./ha): 60%
16 | CON=C(C)c1c(S(C)(=O)=O)ccc(C(=O)Nc2nonc2C)c1Cl (single isomer, unassigned) [13-5] | – | – | 60 | 90 | –
17 | CCON=C(C)c1c(S(C)(=O)=O)ccc(C(=O)Nc2nonc2C)c1Cl (single isomer, unassigned) [13-6] | 60 | 100 | 60 | 100 | Herbicidal efficacy against CYPES (different harmful plants [2]; 320 g a.i./ha): 60%
